The experiment has as its system PC12 cells. Description: neurite outgrowth from PC12 cells measured by laser scanning line amplitudes. The class given is cell-based. As to conditions: NGF added, after six days, FIG. 5. The source says:
The method of the invention was applied to the measurement of neurite outgrowth from PC12 cells. The neurites are much smaller than the cells and the laser beam, being only one micron in diameter in some cases. […] The extent of differentiation can be measured by considering the characteristic gaussian fit, multi-peaks ratio, sample width and number of inflections of the line amplitudes of the two populations. Any combination of these measurements from the line amplitudes may be used as a quantitative measure of differentiation.
If the line-to-line spacing of the scan is sufficiently small it is also possible to produce a representation of each cell in 3D (FIG. 6). This provides confirmation of the ability of the method to characterise differentiation.

This note sets out measurements from patent US20030100024A1, “Method and apparatus for high throughput cell-based assays for screening and diagnostics” (priority 2000, published 2003).

nerve growth factor [NGF]: the “differentiation (neurite outgrowth) of the cell population” value was “the majority differentiated with neurite outgrowths”.
